“And” between values parts separate entries of the source, which are not always exact repeats. Identical values can stand only once.
How the values were obtained:
factor Xa = biological target: T1, factor Xa (Homo sapiens, UniProt P00742); test: Factor Xa chromogenic substrate hydrolysis assay; format: biochemical
T1 construct: purchased Haematologic Technologies (Essex Junction, Vt.); host or cells: human plasma
Protocol: (§1) Plasma FIX (500 nM) was incubated with human FXIa (3 nM) in 50 mM Hepes buffer, pH 7.4, containing 125 mM NaCl, 5 mM CaCl2, and 0.1 mg/mL bovine serum albumin at 24° C. […] The primary antibody was goat anti-human FIX polyclonal IgG (Enzyme Research Laboratories, South Bend, Tenn.), and the secondary antibody was horseradish peroxidase-conjugated anti-goat IgG. Detection was by chemiluminescence. […] The inhibition profile was determined over a range of inhibitor concentrations to determine the IC50 of the enzyme-inhibitor complex. The KM of the substrate for its enzyme was used to identify the concentration of the substrate to be used for inhibition studies. […] Active site concentrations for preparations of FXIa were determined by titrations with human antithrombin in an S-2366 cleavage assay. The reaction was monitored using a SpectraMax 340 microtiter plate reader (Molecular Devices Corp., Sunnyvale, Calif.) with a reaction volume of 100 μL and path length of 3 mm. Each assay was performed in triplicate. The concentration of S-2366 was measured using an absorption coefficient of 8,266 M-1cm-1 at λ342 nm, while the free p-nitroaniline concentration was calculated using an absorption coefficient of 9,933 M cm^−1 at λ405 nm. The data was fitted using the standard Michaelis-Menten equation to determine the KM and VMAX. Results
(§2) Inhibition of Proteases of the Coagulation and Digestive Systems by 16S. The inhibition potential of 500 μM SAM (16S, 15S, 13S) against coagulation enzymes including thrombin and factor Xa and digestive enzymes including trypsin and chymotrypsin was evaluated using chromogenic substrate hydrolysis assays reported in the literature.^2,3,6 These assays were performed using substrates appropriate for the enzyme being studied under conditions closest to the physiological condition (37° C. and pH 7.4), except for thrombin, which was performed at 25° C. and pH 7.4. The concentrations of enzymes and substrates in microplate wells, respectively, were: 6 nM and 50 μM for thrombin; 1.09 nM and 125 μM for factor Xa, 2.5 ng/ml and 80 μM for bovine trypsin; and 500 ng/ml and 240 μM for bovine chymotrypsin. The ratio of the proteolytic activity of an enzyme in the presence of the sulfated QAO to that in its absence was used to calculate percent inhibition (%).

human whole blood = test: Thromboelastography of clot formation in whole blood; parameters: G: unit not given here
Description: To assess the anticoagulation properties of SPGG in human whole blood, thromboelastography was employed. This technique is an ex vivo protocol often utilized to evaluate the anticoagulant activity of low molecular weight heparins (LMWHs) in whole blood.^13-16Thromboelastography monitors the thrombodynamic properties of blood as it is induced to clot under a low shear environment resembling sluggish venous flow. These thrombodynamic properties are expected to dramatically change in presence of anticoagulant in blood. The blood clot formation is recorded as a force transduced on a pin at the center of a blood-containing cup. The kinetics of clot formation and growth as well as the strength and stability of the formed clot are measured through parameters such as maximum amplitude (MA) of clot formation; shear elastic modulus strength (G) of clot; the reaction time (R) for the start of clotting; and the angle α, which is a measure of fibrin build-up and cross-linking (FIG. 8).

human plasma = test: Activated partial thromboplastin time (APTT) plasma clotting assay; format: biochemical
Protocol: Plasma clotting assays, prothrombin and activated partial thromboplastin time (PT and APTT, respectively), are routinely used to assess the anticoagulation potential of new enzyme inhibitors in an in vitro setting. Whereas PT measures the effect of an inhibitor on the extrinsic pathway of coagulation, APTT measures the effect on the intrinsic pathway.
Prothrombin Time (PT) and Activated Partial Thromboplastin Time (APTT) were assessed as described in Example 1.

human FXIa = biological target: T2, human FXIa (Homo sapiens, UniProt P03951); test: Inhibition of FXIa activation of FIX, Western blotting; format: biochemical
T2 construct: purchased Haematologic Technologies (Essex Junction, Vt.); host or cells: human plasma
Protocol: as §1

FXIa wild type (FXIa-WT) = biological target: T3, FXIa wild type (FXIa-WT) (Homo sapiens, UniProt P03951); test: Michaelis-Menten kinetics of S-2366 hydrolysis by full-length factor XIa; format: biochemical
T3 construct: made in house; host or cells: HEK-293
Protocol: as §1

[1] = biological target: T4, FXIa catalytic domain (FXIa-CD) (Homo sapiens, UniProt P03951, C500S); test: Michaelis-Menten kinetics of S-2366 hydrolysis by FXIa catalytic domain; format: biochemical
T4 construct: eliminating the bond allows the catalytic domain of FXIa (FXIa-CD) to separate from the heavy chain; made in house; host or cells: HEK-293
Protocol: as §1

thrombin = biological target: T5, thrombin (Homo sapiens, UniProt P00734); test: Thrombin chromogenic substrate hydrolysis assay; format: biochemical
T5 construct: purchased Haematologic Technologies (Essex Junction, Vt.); host or cells: human plasma
Protocol: as §1, §2

T4 sequence (P03951 388-625 C500S): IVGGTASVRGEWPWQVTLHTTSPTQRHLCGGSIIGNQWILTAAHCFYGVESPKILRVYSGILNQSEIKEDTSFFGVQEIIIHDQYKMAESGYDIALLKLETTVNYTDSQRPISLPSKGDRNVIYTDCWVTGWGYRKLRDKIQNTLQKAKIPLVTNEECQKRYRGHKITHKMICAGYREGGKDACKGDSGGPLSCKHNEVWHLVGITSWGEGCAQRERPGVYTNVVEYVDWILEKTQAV
T3 sequence (P03951 19-387 limits assumed): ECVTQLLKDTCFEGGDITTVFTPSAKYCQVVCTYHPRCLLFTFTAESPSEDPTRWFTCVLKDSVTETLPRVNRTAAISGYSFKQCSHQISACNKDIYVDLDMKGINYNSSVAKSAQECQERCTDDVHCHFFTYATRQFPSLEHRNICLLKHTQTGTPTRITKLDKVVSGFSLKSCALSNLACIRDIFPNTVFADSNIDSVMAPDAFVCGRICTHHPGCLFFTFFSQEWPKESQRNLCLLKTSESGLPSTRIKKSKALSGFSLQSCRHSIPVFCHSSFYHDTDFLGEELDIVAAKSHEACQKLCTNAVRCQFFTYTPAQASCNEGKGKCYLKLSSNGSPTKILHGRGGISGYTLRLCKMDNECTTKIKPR
T3 sequence (P03951 388-625 limits assumed): as the sequence (P03951 388-625 C500S) above, with S113C counted along it
T1 sequence (P00742 235-488 limits assumed): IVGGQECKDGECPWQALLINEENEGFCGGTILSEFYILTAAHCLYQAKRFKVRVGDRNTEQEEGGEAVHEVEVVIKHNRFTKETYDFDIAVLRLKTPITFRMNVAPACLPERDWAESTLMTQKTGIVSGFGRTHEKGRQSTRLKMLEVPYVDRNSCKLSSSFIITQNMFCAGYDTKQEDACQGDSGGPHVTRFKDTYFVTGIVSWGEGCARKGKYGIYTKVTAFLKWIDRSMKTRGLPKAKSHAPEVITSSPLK
T1 sequence (P00742 41-179 partner limits assumed): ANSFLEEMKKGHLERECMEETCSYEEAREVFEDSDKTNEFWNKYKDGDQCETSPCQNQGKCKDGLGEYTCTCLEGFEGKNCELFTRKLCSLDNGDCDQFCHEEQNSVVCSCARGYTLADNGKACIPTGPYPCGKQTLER
T2 sequence (P03951 19-387 limits assumed): as the sequence (P03951 19-387 limits assumed) above
T2 sequence (P03951 388-625 limits assumed): as the sequence (P03951 388-625 C500S) above, with S113C counted along it

O=C(OC[C@H]1O[C@@H](OC(=O)c2cc(OS(=O)(=O)O)c(O)c(OS(=O)(=O)O)c2)[C@H](OC(=O)c2cc(OS(=O)(=O)O)c(O)c(OS(=O)(=O)O)c2)[C@@H](OC(=O)c2cc(OS(=O)(=O)O)c(O)c(OS(=O)(=O)O)c2)[C@@H]1OC(=O)c1cc(OS(=O)(=O)O)c(O)c(OS(=O)(=O)O)c1)c1cc(OS(=O)(=O)O)c(O)c(OS(=O)(=O)O)c1 [SPGG, Sulfated Pentagalloylglucoside]
HS (factor Xa): 0.8 ± 0.2 | IC50 (factor Xa): 153 µM | ΔY (factor Xa): 101.9 ± 3.5 | selectivity over factor Xa (factor Xa; FXIa vs factor Xa): 221 fold | reduction of G (human whole blood; SPGG 0-280 μg/mL): ~8 fold | reduction of MA (human whole blood; SPGG 0-280 μg/mL): ~4 fold | G (human whole blood; SPGG 20 μg/mL): 8.2 × 10^3 | MA (human whole blood; SPGG 20 μg/mL): 62 mm | R (human whole blood; SPGG 20 μg/mL): 6.6 min | α (human whole blood; SPGG 20 μg/mL): 51.4 degs | G (human whole blood; SPGG 135 μg/mL): 5.0 × 10^3 | MA (human whole blood; SPGG 135 μg/mL): 49.8 mm | R (human whole blood; SPGG 135 μg/mL): 22.8 min | α (human whole blood; SPGG 135 μg/mL): 30.6 degs | G (human whole blood; SPGG 190 μg/mL): 3.8 × 10^3 | MA (human whole blood; SPGG 190 μg/mL): 43.5 mm | R (human whole blood; SPGG 190 μg/mL): 37.8 min | α (human whole blood; SPGG 190 μg/mL): 9.4 degs | G (human whole blood; SPGG 280 μg/mL): 0.9 × 10^3 | MA (human whole blood; SPGG 280 μg/mL): 15.1 mm | R (human whole blood; SPGG 280 μg/mL): 87.1 min | α (human whole blood; SPGG increased from 0 to 280 μg/mL): less than 9.4 ° | fold less effective than enoxaparin (human plasma; at molar levels): 36 fold | APTT doubling potency relative to enoxaparin (fold less) (human plasma; by weight (μg/mL)): 18 fold | concentration for 2-fold increase in APTT (human plasma; human plasma): 96 µg/mL | formation of FIXαβ (human FXIa; 3 μM SPGG, FIX 0.5 μM, after 120 min of incubation): not detectable | inhibition at 3 µM (human FXIa; read-out: efficacy of inhibition of FIX activation by FXIa): ~100% | VMAX (FXIa wild type (FXIa-WT); [SPGG] 0.005 μg/mL): 93.7 ± 3.2 mAU/min | VMAX (FXIa wild type (FXIa-WT); [SPGG] 0.5 μg/mL): 74.6 ± 2.6 mAU/min | VMAX (FXIa wild type (FXIa-WT); [SPGG] 5.0 μg/mL): 32.3 ± 2.1 mAU/min | VMAX (FXIa wild type (FXIa-WT); [SPGG] 50.0 μg/mL): 17.2 mAU/min and 17.2 ± 1.2 mAU/min | VMAX (FXIa wild type (FXIa-WT); [SPGG] […]): 56.9 ± 1.5 mAU/min | decrease in VMAX ([1]; SPGG 0 to 5.0 μg/mL): ~5 fold | VMAX ([1]; [SPGG] 0.005 μg/mL): 87.0 ± 2.2 mAU/min | VMAX ([1]; [SPGG] 0.5 μg/mL): 53.9 ± 1.4 mAU/min | VMAX ([1]; [SPGG] 5.0 μg/mL): 22.6 mAU/min and 22.6 ± 1.4 mAU/min | HS (thrombin): 0.5 ± 0.1 | IC50 (thrombin): 700 µM | ΔY (thrombin): 83 ± 10 | selectivity over thrombin (thrombin; FXIa vs thrombin): 1016 fold

From patent US9758459B2, “Allosteric modulators of factor XIa as anticoagulant agents” (VIRGINIA COMMONWEALTH UNIVERSITY, priority 2012, dated 2017)
